Laboratory results as given in patent publication US20140057915A1, “KINASE INHIBITORS” (TOPIVERT PHARMA LIMITED, priority 2012, published 2014).
Like-named read-outs stand apart in the source and are kept apart here.

Legend:
p38 MAPKα = p38 MAPKα (Homo sapiens, UniProt Q16539); test: Enzyme binding assay (Kinomescan); settings: read-out: % Inhibition of kinase binding at 500 nM, p38 MAPKα
Procedure: (§1) Enzyme Binding Assays (Kinomescan)
(§2) The kinase enzyme binding activities of compounds disclosed herein were determined using a proprietary assay which measures active site-directed competition binding to an immobilized ligand (Fabian, M. A. et al., Nature Biotechnol., 2005, 23:329-336). These assays were conducted by DiscoverX (formerly Ambit; San Diego, Calif.). The percentage inhibition produced by incubation with a test compound is calculated relative to the non-inhibited control.

p38 MAPKγ = p38 MAPKγ (Homo sapiens, UniProt P53778); test: Enzyme binding assay (Kinomescan); settings: read-out: % Inhibition of kinase binding at 500 nM, p38 MAPKγ
Sequence of p38 MAPKγ (P53778 whole entry): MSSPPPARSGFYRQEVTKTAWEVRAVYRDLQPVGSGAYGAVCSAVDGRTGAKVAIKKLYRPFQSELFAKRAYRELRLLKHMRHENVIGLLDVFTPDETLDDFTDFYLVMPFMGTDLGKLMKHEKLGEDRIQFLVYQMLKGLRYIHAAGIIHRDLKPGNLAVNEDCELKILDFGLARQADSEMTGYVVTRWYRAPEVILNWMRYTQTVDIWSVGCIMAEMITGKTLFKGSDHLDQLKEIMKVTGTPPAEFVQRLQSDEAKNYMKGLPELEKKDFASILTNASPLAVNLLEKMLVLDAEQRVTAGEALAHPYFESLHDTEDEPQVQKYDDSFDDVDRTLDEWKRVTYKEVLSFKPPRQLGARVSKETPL
Procedure: as §1
(§3) These assays were conducted by DiscoverX (formerly Ambit; San Diego, Calif.). The percentage inhibition produced by incubation with a test compound is calculated relative to the non-inhibited control.

GSK3α = GSK3α (Homo sapiens, UniProt P49840); test: Enzyme binding assay (Kinomescan); settings: read-out: % Inhibition of kinase binding at 500 nM, GSK3α
Sequence of GSK3α (P49840 whole entry): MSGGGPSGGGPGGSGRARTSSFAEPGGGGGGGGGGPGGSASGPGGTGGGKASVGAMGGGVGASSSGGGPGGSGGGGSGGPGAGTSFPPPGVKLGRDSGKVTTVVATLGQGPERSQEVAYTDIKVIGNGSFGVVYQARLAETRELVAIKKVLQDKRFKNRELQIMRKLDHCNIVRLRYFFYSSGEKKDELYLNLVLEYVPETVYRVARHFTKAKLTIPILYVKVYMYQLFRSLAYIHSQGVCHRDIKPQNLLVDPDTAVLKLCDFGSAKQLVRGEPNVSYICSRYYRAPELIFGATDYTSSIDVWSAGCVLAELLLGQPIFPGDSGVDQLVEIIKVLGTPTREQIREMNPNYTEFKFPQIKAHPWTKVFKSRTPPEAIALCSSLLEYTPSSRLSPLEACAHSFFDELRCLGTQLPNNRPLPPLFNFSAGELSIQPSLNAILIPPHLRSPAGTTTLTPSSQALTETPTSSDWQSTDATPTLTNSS
Procedure: as §3

cSrc = cSrc (Homo sapiens, UniProt P12931); test: Enzyme binding assay (Kinomescan); settings: read-out: % Inhibition of kinase binding at 500 nM, cSrc
Sequence of cSrc (P12931 whole entry): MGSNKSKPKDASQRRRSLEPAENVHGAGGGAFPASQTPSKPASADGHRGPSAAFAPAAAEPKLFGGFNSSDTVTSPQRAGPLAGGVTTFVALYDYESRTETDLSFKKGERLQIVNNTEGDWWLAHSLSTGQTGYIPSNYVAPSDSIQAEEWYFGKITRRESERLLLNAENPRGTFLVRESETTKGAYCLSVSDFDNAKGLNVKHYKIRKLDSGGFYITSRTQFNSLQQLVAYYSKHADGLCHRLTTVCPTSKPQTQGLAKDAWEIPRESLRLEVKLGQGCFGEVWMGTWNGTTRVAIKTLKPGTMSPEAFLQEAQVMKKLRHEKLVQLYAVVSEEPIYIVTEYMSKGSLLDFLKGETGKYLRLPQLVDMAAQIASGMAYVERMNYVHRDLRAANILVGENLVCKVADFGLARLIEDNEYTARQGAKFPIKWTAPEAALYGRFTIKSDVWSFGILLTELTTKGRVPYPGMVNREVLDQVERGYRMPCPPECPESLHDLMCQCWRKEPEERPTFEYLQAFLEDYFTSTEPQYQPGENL
Procedure: as §3

CYP450 [1] = target: CYP450 (Homo sapiens, UniProt P11712); test: Time-dependent inhibition of cytochromes (CYP450 TDI); assay type: in vitro ADME; settings: CYP2C9 (diclofenac probe), human hepatic microsomes
Sequence of CYP450 (Homo sapiens, UniProt P11712) (P11712 whole entry): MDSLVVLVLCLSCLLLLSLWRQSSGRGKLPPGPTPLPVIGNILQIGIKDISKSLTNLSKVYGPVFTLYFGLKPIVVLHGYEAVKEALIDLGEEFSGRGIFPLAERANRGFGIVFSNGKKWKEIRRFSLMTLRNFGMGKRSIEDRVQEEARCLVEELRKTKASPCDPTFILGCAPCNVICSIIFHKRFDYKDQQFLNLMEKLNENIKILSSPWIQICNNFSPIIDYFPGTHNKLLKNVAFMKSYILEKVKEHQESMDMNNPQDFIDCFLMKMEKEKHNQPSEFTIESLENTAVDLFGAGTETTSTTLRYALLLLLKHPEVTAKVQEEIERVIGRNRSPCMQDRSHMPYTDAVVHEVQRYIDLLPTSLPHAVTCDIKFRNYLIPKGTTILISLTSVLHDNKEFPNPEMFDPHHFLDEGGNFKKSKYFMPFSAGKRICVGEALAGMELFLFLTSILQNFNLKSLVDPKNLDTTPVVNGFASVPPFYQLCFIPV
Procedure: (§4) (ii) Time-Dependent Inhibition of Cytochromes
(§5) CYP450 time-dependent inhibition (TDI) assays were performed with test compound at six test concentrations, 0.062 μM to 15 μM (n=2). The test compounds was pre-incubated for 30 minutes with pooled human hepatic microsomes in 0.1 M Tris buffer, pH 7.4, at 37° C. in the presence of cofactor NADPH. A parallel series of incubations (n=2) were prepared with no pre-incubation. Probe substrates were then added (with additional cofactor) and further incubated for the times specified. Concentrations of probe substrates used in the incubations have been optimised to maintain first order reaction conditions.
(§6) Reactions were terminated with acetonitrile containing analytical internal standard (carbamazepine), samples then centrifuged to remove microsomal protein and analysed using optimised LC/MS-MS conditions. The MS data were normalised to internal standard and compared to the appropriate solvent controls to determine the amount of metabolite formed from the probe substrate relative to the “uninhibited” controls. The results are quoted as % inhibition. These values were then plotted using the sigmoidal dose response equation (shown below) and IC50's calculated.
(§7) Y=bottom+((top-bottom)/1+10̂((Log IC50−X)*Hill slope)) • X=Log concentration • Y=response
(§8) Variation in probe turnover between plate wells means that inhibition values recorded below 10-15% may not be significant.

CYP2C9 = CYP2C9 (Homo sapiens, UniProt P11712); test: as above; assay type: in vitro ADME; settings: human, pooled human liver microsomes, pH 7.4, probe diclofenac, CYP2C9 (diclofenac probe), 15 μM, human hepatic microsomes, read-out: 15 μM % Inh
Sequence of CYP2C9 (P11712 whole entry): as above
Procedure: as §4, §5, §6, §7, §8

CYP3A4 = CYP3A4 (Homo sapiens, UniProt P08684); test: as above; assay type: in vitro ADME; settings: human, pooled human liver microsomes, pH 7.4, probe midazolam, CYP3A4 (midazolam probe), 15 μM, human hepatic microsomes, read-out: 15 μM % Inh
Sequence of CYP3A4 (P08684 whole entry): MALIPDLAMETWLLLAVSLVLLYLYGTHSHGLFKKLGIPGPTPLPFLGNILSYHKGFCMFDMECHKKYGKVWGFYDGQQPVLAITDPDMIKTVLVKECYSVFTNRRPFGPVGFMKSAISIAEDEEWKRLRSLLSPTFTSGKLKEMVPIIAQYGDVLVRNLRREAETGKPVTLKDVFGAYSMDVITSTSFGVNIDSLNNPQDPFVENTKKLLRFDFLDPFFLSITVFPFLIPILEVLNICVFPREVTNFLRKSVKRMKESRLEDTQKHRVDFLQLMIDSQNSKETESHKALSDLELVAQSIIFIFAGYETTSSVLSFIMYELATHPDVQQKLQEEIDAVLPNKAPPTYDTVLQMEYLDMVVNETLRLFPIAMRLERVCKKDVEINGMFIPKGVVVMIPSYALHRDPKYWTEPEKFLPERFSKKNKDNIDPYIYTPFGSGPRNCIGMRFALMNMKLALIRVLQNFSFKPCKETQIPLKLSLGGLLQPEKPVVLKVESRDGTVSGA
Procedure: as §4, §5, §6, §7, §8

CYP450 [2] = target: CYP450 (Homo sapiens, UniProt P08684); test: as above; assay type: in vitro ADME; settings: CYP3A4 (midazolam probe), human hepatic microsomes
Sequence of CYP450 (Homo sapiens, UniProt P08684) (P08684 whole entry): as above
Procedure: as §4, §5, §6, §7, §8

SCID mice = test: Adoptive transfer in mice; settings: mouse
Procedure: (D) Adoptive Transfer in Mice
On Study day 0, female Balb/C mice are terminated and spleens obtained for CD45RB^high cell isolation (Using SCID IBD cell Separation protocol). Approximately 4×10^5 cells/mL CD45RB^high cells are then injected IP (100 μL/mouse) into female SCID animals. On study day 14, mice are weighed and randomized into treatment groups based on body weight. On Day 21, compounds are administered BID, via oral gavage, in a peanut oil vehicle at the dose levels outlined below and a dose volume of 5 mL/kg. Treatment continues until study day 42, at which point the animals are necropsied 4 hours after am administration. The colon length and weight is recorded and used as a secondary endpoint in the study as a measurement of colon oedema. The colon is then divided into six cross-sections, four of which are used for histopathology scoring (primary endpoint) and two are homogenised for cytokine analysis. Data shown is the % inhibition of the induction window between naïve animals and vehicle animals, where higher inhibition implies closer to the non-diseased, naïve, phenotype.

[3] = tested on: 71 receptors and 26 enzymes; test: Diversity Profile (Cerep); assay type: binding; settings: 300 nM
Procedure: Studies were conducted by Cerep (Celle-Lévescault, France) to investigate the binding of the compound of Example 77 to a diverse selection of receptors and to investigate either the inhibition or activation of a selection of enzymes (the “Diversity Profile” comprising a total of 71 receptors and 26 enzymes).

B-Raf (V600e) = B-Raf (V600e) (Homo sapiens, UniProt P15056, V600E); test: Enzyme binding assay (KINOMEscan)
Sequence of B-Raf (V600e) (P15056 whole entry V600E): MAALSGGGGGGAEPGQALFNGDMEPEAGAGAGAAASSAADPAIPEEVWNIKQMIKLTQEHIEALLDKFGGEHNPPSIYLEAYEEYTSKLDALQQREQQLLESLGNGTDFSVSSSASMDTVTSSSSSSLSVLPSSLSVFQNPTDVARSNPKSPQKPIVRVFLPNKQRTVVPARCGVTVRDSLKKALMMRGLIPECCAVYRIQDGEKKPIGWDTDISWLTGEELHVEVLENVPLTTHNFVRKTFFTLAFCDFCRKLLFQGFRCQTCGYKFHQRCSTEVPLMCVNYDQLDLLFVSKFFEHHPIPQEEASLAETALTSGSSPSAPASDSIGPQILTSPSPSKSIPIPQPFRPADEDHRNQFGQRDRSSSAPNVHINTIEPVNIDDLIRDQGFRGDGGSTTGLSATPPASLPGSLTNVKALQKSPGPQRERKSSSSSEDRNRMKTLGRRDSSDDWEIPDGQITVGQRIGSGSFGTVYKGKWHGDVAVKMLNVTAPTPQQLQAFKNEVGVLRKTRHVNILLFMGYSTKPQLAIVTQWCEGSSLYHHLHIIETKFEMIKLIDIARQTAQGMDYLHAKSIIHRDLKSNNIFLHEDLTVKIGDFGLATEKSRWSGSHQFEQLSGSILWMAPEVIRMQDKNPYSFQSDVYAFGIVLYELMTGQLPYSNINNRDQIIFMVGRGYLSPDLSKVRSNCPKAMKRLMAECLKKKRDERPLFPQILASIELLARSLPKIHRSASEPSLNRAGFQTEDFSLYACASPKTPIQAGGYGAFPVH
Procedure: as §2

[4] = tested on: Salmonella typhimurium, strains TA98 and TA100; test: Mutagenicity assessment (bacterial reverse mutation screen); settings: presence or absence of S-9 mix; up to 5000 μg/plate
Procedure: Mutagenicity Assessment (Bacterial Reverse Mutation Screen)
Studies were conducted by Sequani (Ledbury, Herefordshire, UK) to assess the compound of Example 77 in vitro for its ability to induce mutations in two histidine dependent auxotrophic mutants of Salmonella typhimurium, strains TA98 and TA100.
The mutation screen was conducted using the plate incorporation method and was performed in both the presence and absence of S-9 mix (a liver post-mitochondrial fraction derived from the livers of Aroclor 1254 treated rats). The bacteria were exposed to the compound of Example 77 dissolved in dimethylsulphoxide, which solvent was also used as the negative control. The dose levels used were 0.32, 1.6, 8, 40, 200, 1000 or 5000 μg/plate.

Sequence of p38 MAPKα (Q16539 whole entry): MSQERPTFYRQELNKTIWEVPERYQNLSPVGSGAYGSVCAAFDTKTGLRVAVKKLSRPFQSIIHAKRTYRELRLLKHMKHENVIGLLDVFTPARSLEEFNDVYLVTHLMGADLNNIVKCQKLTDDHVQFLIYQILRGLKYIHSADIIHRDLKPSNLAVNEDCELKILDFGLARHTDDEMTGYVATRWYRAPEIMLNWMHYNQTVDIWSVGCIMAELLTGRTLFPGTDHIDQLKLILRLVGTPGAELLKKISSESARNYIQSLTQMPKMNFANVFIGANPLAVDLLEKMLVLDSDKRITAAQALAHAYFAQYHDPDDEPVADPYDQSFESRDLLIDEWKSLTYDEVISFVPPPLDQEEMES

inhibition at 0.5 µM (p38 MAPKα) [%]	inhibition at 0.5 µM (p38 MAPKγ) [%]	inhibition at 0.5 µM (GSK3α) [%]	inhibition at 0.5 µM (cSrc) [%]	Compound	IC50 (CYP450 [1]; 0 min preincubation) [µM]	IC50 (CYP450 [1]; 30 min preincubation) [µM]	inhibition at 15 µM (CYP2C9; 0 min preincubation) [%]	inhibition at 15 µM (CYP2C9; 30 min preincubation) [%]	inhibition at 15 µM (CYP3A4; 0 min preincubation) [%]	inhibition at 15 µM (CYP3A4; 30 min preincubation) [%]	IC50 (CYP450 [2]; 0 min preincubation) [µM]	IC50 (CYP450 [2]; 30 min preincubation) [µM]	activity in adoptive transfer in vivo model of colonic inflammation (SCID mice)	inhibition of control specific binding in the receptor binding assays or enzyme assays [3]	effect on the binding of the kinase B-Raf (V600e) to its standard ligand (B-Raf (V600e))	revertant colonies (mutagenic effects) [4]
95	82	19	100	COc1cc(Nc2nccc(Oc3ccc(NC(=O)Nc4cc(C(C)C)nn4-c4ccc(C)cc4)c4ccccc34)n2)cc(C(=O)NCCN2CCOCC2)c1 [Example 8, 3-((4-((4-(3-(3-Isopropyl-1-(p-tolyl)-1H-pyrazol-5-yl)ureido)naphthalen-1-yl)oxy)pyrimidin-2-yl)amino)-5-methoxy-N-(2-morpholinoethyl)benzamide]	–	–	–	–	–	–	–	–	–	–	–	–
–	–	–	–	C#Cc1cc(Nc2nccc(Oc3ccc(NC(=O)Nc4cc(C(C)(C)C)nn4-c4ccc(OC)cc4)c4ccccc34)n2)cc(C(=O)NCCN2CCOCC2)c1 [Example 77, 3-((4-((4-(3-(3-(tert-Butyl)-1-(4-methoxyphenyl)-1H-pyrazol-5-yl)ureido)-naphthalen-1-yl)oxy)pyrimidin-2-yl)amino)-5-ethynyl-N-(2-morpholinoethyl)benzamide]	> 15	> 15	-4	1	15	35	> 15	> 15	significant activity	less than 25%	did not have any effect on the binding	no dose-related or statistically significant increases in revertant colonies
